According to PMC3791473 (Nature Communications, 2013):
Peptide text beside a SMILES is read from it.

Molecular target: T1, Ptr2p (Saccharomyces cerevisiae, UniProt P32901)
T1 sequence (P32901 1-601): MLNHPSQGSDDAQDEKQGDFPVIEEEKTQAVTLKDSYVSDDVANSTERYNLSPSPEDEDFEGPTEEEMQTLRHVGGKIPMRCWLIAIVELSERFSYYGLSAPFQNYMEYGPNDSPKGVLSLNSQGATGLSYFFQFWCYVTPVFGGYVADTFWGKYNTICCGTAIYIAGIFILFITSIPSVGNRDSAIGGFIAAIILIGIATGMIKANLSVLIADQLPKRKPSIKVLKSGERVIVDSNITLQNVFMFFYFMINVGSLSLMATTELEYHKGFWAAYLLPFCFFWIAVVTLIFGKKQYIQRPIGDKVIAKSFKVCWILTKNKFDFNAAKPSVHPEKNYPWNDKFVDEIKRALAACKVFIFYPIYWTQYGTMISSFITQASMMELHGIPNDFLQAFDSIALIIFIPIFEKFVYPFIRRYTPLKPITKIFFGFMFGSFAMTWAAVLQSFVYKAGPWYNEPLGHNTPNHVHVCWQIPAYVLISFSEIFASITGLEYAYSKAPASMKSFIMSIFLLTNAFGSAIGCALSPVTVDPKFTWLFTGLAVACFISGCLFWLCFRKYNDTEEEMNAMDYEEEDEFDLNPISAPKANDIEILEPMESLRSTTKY
Experiment: Fluorescence-based competitive uptake
Format: cell-based

Q: `NCC(=O)NCC(=O)NCC(=O)O` [Gly–Gly–Gly] (H-Gly-Gly-Gly-OH; N-terminus and C-terminus assumed) was tested. Which Ki did it give?
A: The Ki was 48000 µM.

Q: How did the Ki turn out when `C[C@H](N)C(=O)N[C@@H](C)C(=O)O` [N-terminal A, C-terminal A, Ala–Ala] (H-Ala-Ala-OH; N-terminus and C-terminus assumed) was run?
A: The Ki was 400 µM.

Q: For `CC(C)C[C@H](NC(=O)[C@H](C)N)C(=O)O` [N-terminal A, C-terminal L, Ala–Leu] (H-Ala-Leu-OH; N-terminus and C-terminus assumed), which Ki is on record?
A: The Ki was 310 µM.

Q: For `CC(C)C[C@H](NC(=O)CN)C(=O)O` [N-terminal G, C-terminal L, Gly-Leu], which Ki is on record?
A: The Ki was 600 µM.

Q: For `CC(C)C[C@H](NC(=O)[C@@H](N)Cc1c[nH]cn1)C(=O)O` [N-terminal H, C-terminal L, His–Leu] (H-His-Leu-OH; N-terminus and C-terminus assumed), which Ki is on record?
A: The Ki was 50 µM.

Q: How did the Ki turn out when `CC(C)C[C@H](N)C(=O)NCC(=O)O` [N-terminal L, C-terminal G, Leu-Gly] (H-Leu-Gly-OH; N-terminus and C-terminus assumed) was run?
A: The Ki was 360 µM.

Q: Which Ki does the source give for `CC(C)C[C@H](N)C(=O)N[C@@H](Cc1c[nH]cn1)C(=O)O` [N-terminal L, C-terminal H, Leu-His] (H-Leu-His-OH; N-terminus and C-terminus assumed) here?
A: The Ki was 130 µM.

Q: `N[C@@H](Cc1c[nH]c2ccccc12)C(=O)N[C@@H](Cc1ccccc1)C(=O)O` [N-terminal W, C-terminal F, Trp-Phe] (H-Trp-Phe-OH) was tested. Which Ki did it give?
A: The Ki was 20 µM.

Q: How did the “competitive inhibition of β-Ala–Lys (AMCA) uptake” value (SC-Ptr2p cells) turn out when carnosine [reference compound] was run?
A: The value was “inhibited”.

Q: With β-Ala–Lys (AMCA) [reference compound] as the compound, how does the Km (read-out: Km of β-Ala–Lys (AMCA) uptake, SC-Ptr2p cells, (±s.d.)) read?
A: Its Km is 160 µM.
